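Five compound concentrations were applied to cells in 96-well plates for 48 hours; endpoints were derived by simple linear interpolation of the resulting dose-response curve. GI50 is the concentration that inhibits growth by half.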 Calls of active or inactive are those of the source. Cut-off read from the data, not from the text of the source: active = GI50 up to about 1.1 µM and inactive = higher.
Experiments:
Assay in all cases: growth of human tumour cells (NCI), 48 h
[1] = system: HCT-15
[2] = system: NCI-H522
[3] = system: MDA-MB-231
[4] = system: HOP-92
[5] = system: SK-OV-3
[6] = system: PC-3
[7] = system: HT-29
[8] = system: MCF7
[9] = system: KM12
[10] = system: K562
[11] = system: UACC-257
[12] = system: EKVX
[13] = system: NCI-H23
[14] = system: MDA-MB-435
[15] = system: IGROV-1
[16] = system: 786-0
[17] = system: SNB-75
[18] = system: T47D
[19] = system: SW-620
[20] = system: SR
[21] = system: COLO 205
[22] = system: ACHN
[23] = system: Hs-578T
[24] = system: TK-10
[25] = system: CCRF-CEM
[26] = system: MOLT-4
[27] = system: NCI/ADR-RES
[28] = system: LOX IMVI
[29] = system: RPMI-8226
[30] = system: BT-549
[31] = system: SNB-19
[32] = system: A498
[33] = system: SK-MEL-5
[34] = system: A549
[35] = system: HCT-116
[36] = system: NCI-H460
[37] = system: SK-MEL-2
[38] = system: SK-MEL-28
[39] = system: DU-145
[40] = system: HL-60
[41] = system: SF-539
[42] = system: HOP-62
[43] = system: Malme-3M
[44] = system: NCI-H226
[45] = system: OVCAR-4
[46] = system: UACC-62
[47] = system: OVCAR-5
[48] = system: M14
[49] = system: U-251
[50] = system: OVCAR-3
[51] = system: OVCAR-8
[52] = system: SF-268
[53] = system: SN12C
[54] = system: SF-295
[55] = system: UO-31
[56] = system: CAKI-1
[57] = system: RXF 393
[58] = system: MDA-N
[59] = system: HCC 2998

Cc1c2cccc-2ccc2c3ccccc3n(C(=O)c3ccc(Cl)cc3)c12
GI50 [1]: 10.6 µM
GI50 [2]: > 100 µM (inactive)
GI50 [3]: > 100 µM (inactive)
GI50 [4]: > 100 µM (inactive)
GI50 [5]: > 100 µM (inactive)
GI50 [6]: > 100 µM (inactive)
GI50 [7]: > 76.7 µM (inactive)
GI50 [8]: 0.479 µM (active)
GI50 [9]: 26.7 µM (inactive)
GI50 [10]: > 100 µM (inactive)
GI50 [11]: > 100 µM (inactive)
GI50 [12]: 34.1 µM (inactive)
GI50 [13]: > 100 µM (inactive)
GI50 [14]: > 100 µM (inactive)
GI50 [15]: > 100 µM (inactive)
GI50 [16]: > 100 µM (inactive)
GI50 [17]: > 100 µM (inactive)
GI50 [18]: 1.39 µM (inactive)
GI50 [19]: > 100 µM (inactive)
GI50 [20]: > 63.7 µM (inactive)
GI50 [21]: 46.7 µM (inactive)
GI50 [22]: > 100 µM (inactive)
GI50 [23]: > 91.2 µM (inactive)
GI50 [24]: > 100 µM (inactive)
GI50 [25]: > 57 µM (inactive)
GI50 [26]: > 85.5 µM (inactive)
GI50 [27]: > 100 µM (inactive)
GI50 [28]: > 100 µM (inactive)
GI50 [29]: 45.1 µM (inactive)
GI50 [30]: > 100 µM (inactive)
GI50 [31]: > 100 µM (inactive)
GI50 [32]: > 100 µM (inactive)
GI50 [33]: > 100 µM (inactive)
GI50 [34]: > 100 µM (inactive)
GI50 [35]: 96.8 µM (inactive)
GI50 [36]: > 89.7 µM (inactive)
GI50 [37]: > 100 µM (inactive)
GI50 [38]: > 100 µM (inactive)
GI50 [39]: > 100 µM (inactive)
GI50 [40]: > 82.6 µM (inactive)
GI50 [41]: > 100 µM (inactive)
GI50 [42]: > 100 µM (inactive)
GI50 [43]: > 100 µM (inactive)
GI50 [44]: > 100 µM (inactive)
GI50 [45]: > 100 µM (inactive)
GI50 [46]: > 100 µM (inactive)
GI50 [47]: > 100 µM (inactive)
GI50 [48]: > 100 µM (inactive)
GI50 [49]: > 100 µM (inactive)
GI50 [50]: > 100 µM (inactive)
GI50 [51]: > 100 µM (inactive)
GI50 [52]: > 100 µM (inactive)
GI50 [53]: > 100 µM (inactive)
GI50 [54]: > 100 µM (inactive)
GI50 [55]: > 100 µM (inactive)
GI50 [56]: > 100 µM (inactive)
GI50 [57]: > 100 µM (inactive)

Cc1ccc(C2=C(C#N)C(=O)N3CCN=C3S2)cc1
GI50 [1]: > 100 µM
GI50 [2]: > 100 µM (inactive)
GI50 [3]: > 100 µM (inactive)
GI50 [4]: > 100 µM (inactive)
GI50 [5]: > 100 µM (inactive)
GI50 [6]: > 100 µM (inactive)
GI50 [7]: 57.1 µM (inactive)
GI50 [8]: > 100 µM (inactive)
GI50 [9]: > 100 µM (inactive)
GI50 [10]: 58.2 µM (inactive)
GI50 [11]: > 100 µM (inactive)
GI50 [12]: > 100 µM (inactive)
GI50 [13]: > 100 µM (inactive)
GI50 [14]: > 100 µM (inactive)
GI50 [15]: > 100 µM (inactive)
GI50 [16]: > 100 µM (inactive)
GI50 [17]: > 100 µM (inactive)
GI50 [58]: > 100 µM (inactive)
GI50 [18]: > 100 µM (inactive)
GI50 [59]: > 100 µM (inactive)
GI50 [19]: > 100 µM (inactive)
GI50 [20]: > 100 µM (inactive)
GI50 [21]: > 100 µM (inactive)
GI50 [22]: 45.1 µM (inactive)
GI50 [24]: > 100 µM (inactive)
GI50 [25]: > 100 µM (inactive)
GI50 [26]: > 100 µM (inactive)
GI50 [27]: > 100 µM (inactive)
GI50 [28]: > 100 µM (inactive)
GI50 [30]: > 100 µM (inactive)
GI50 [31]: 70.3 µM (inactive)
GI50 [33]: > 100 µM (inactive)
GI50 [34]: > 100 µM (inactive)
GI50 [35]: > 100 µM (inactive)
GI50 [36]: > 100 µM (inactive)
GI50 [37]: > 100 µM (inactive)
GI50 [38]: > 100 µM (inactive)
GI50 [39]: > 100 µM (inactive)
GI50 [41]: > 100 µM (inactive)
GI50 [43]: 43.5 µM (inactive)
GI50 [44]: > 100 µM (inactive)
GI50 [45]: > 100 µM (inactive)
GI50 [46]: > 100 µM (inactive)
GI50 [47]: > 100 µM (inactive)
GI50 [48]: > 100 µM (inactive)
GI50 [49]: > 100 µM (inactive)
GI50 [50]: > 100 µM (inactive)
GI50 [51]: > 100 µM (inactive)
GI50 [53]: > 100 µM (inactive)
GI50 [54]: > 100 µM (inactive)
GI50 [55]: > 100 µM (inactive)
GI50 [56]: > 100 µM (inactive)
GI50 [57]: > 100 µM (inactive)

Source: ChEMBL document CHEMBL1201862, “PubChem BioAssay data set” (2004)
